Data on five compounds can be found in PMC9223062, “Purification and Characterization of a Dark Red Skin Related Dimeric Polyphenol Oxidase from Huaniu Apples” (Foods, 2022).

Experiment [1] deals with T1, dimeric PPO from Huaniu apple peel.
T1 construct: gene PPO2; native, purified from fruit peel (ammonium sulfate, DEAE-sepharose, Sephadex G-200); soluble PPO; about 140 kDa by native-PAGE and SDS-PAGE, 61 kDa monomer by urea-SDS-PAGE, homodimer
As to the kind of experiment: spectrophotometric oxidation assay at […] nm, Lineweaver-Burk. In kind it is biochemical, Malus domestica. To be noted: pH 5.0 citrate phosphate buffer, 25 °C; abstract 1.17, b44 prints 1.16.

Experiment [2] shares this test system. Kind of experiment: spectrophotometric oxidation assay, Lineweaver-Burk. It counts as biochemical, Malus domestica. To be noted: pH 5.0 citrate phosphate buffer, 25 °C. The source says: spectrophotometric oxidation assay, Lineweaver-Burk on dimeric PPO from Huaniu apple peel

As for `Oc1cc(O)c2c(c1)O[C@H](c1ccc(O)c(O)c1)[C@H](O)C2` [EC, (−)-epicatechin], the Km – broadly, the concentration of substrate that gives half-maximal velocity – in experiment [1] was 1170 µM.
Take `Cc1ccc(O)c(O)c1` [4-methylcatechol]: the Km in experiment [2] was found to be 2470 µM.
Consider `O=C(/C=C/c1ccc(O)c(O)c1)O[C@@H]1C[C@](O)(C(=O)O)C[C@@H](O)[C@H]1O` [chlorogenic acid], for which the Km in experiment [2] (text b44 prints 1.29, table value agrees with its Vmax/Km) is 2220 µM.
With `Oc1ccccc1O` [catechol], in experiment [2] (text prints 0.60), the Km turned out to be 610 µM.
`Oc1cc(O)c2c(c1)O[C@H](c1ccc(O)c(O)c1)[C@@H](O)C2` [CT, (+)-catechin]: the Km in experiment [2] was determined as 4630 µM.
